# Literature values as cited in patent US6759063B2, “Methods and compositions for reducing sympathomimetic-induced side effects” (priority 1999, dated 2004).
# Columns and labels:
# [1] = system: human alpha1-adrenoceptors; conditions: up to the highest concentration that could be tested
# [2] = system: cloned human alpha1A- and alpha1B-adrenoceptors; conditions: phenylephrine-stimulated; cloned receptors
# [3] = rodents and humans
# [4] = separate studies
# [5] = 150 mg/day; obese outpatients
smiles,measurement,setting,value
CC[C@H](CC[C@@H](C)[C@H]1CC[C@H]2[C@@H]3CC=C4C[C@@H](O)CC[C@]4(C)[C@H]3CC[C@]12C)C(C)C [beta-sitosterol],inhibition of radioligand binding to human alpha1-adrenoceptors,[1],without consistent inhibitory effect
same,inhibition of agonist-induced [3H]inositol phosphate formation,[2],without consistent inhibitory effect
Cn1c(=O)c2c(ncn2C)n(C)c1=O [caffeine],thermogenic and anti-obesity properties,[3],no effect
CCN[C@@H](C)Cc1cccc(C(F)(F)F)c1 [dexfenfluramine],weight loss in obese patients,[4],promote weight loss
CN[C@@H](C)[C@H](O)c1ccccc1 [ephedrine],thermogenic and anti-obesity properties,[3],potent thermogenic and anti-obesity properties
same,adverse side effects versus placebo group,[5],significantly greater adverse side effects
